The results in this text go back to patent publication US5294609A, “DNA gyrase inhibitors and pharmaceutical preparations therefor” (Hoffmann-LaRoche Inc., priority 1991, dated 1994).

Values after ≈ are worked out from the molar mass of the structure shown.

In one assay the target is T1, DNA gyrase (Escherichia coli, UniProt P0AES6).
T1 construct: supercoiling of relaxed pUC18 plasmid
The assay is described as follows: Inhibition of DNA gyrase activity (DNA gyrase supercoiling assay). The class given is biochemical, E. coli H560. The conditions noted are these: relaxed PUC18 substrate. On the procedure: The inhibition of DNA gyrase activity was measured using a DNA gyrase supercoiling assay according to R. Otter & N. Cozzarelli:Methods in Enzymology, Vol. 100, pp 171-180 (1983). DNA gyrase was isolated from E. coli H560, and relaxed PUC18 plasmed was used as substrate. The activities as regards inhibition of DNA gyrase activity, expressed as maximum non-effective concentration of the test compound (MNC in μg/ml) are compiled in the following Table 4: […]

A further assay relates to B. catarrhalis RA 117. The assay is described as follows: Antibacterial activity in vitro (MIC, agar dilution). The class given is cell-based. The conditions noted are these: Moraxella catarrhalis, RA117, agar dilution (BB2 + 1% Isovitalex + 7.5% sheep blood + metadione), inoculum 10^4 CFU/spot, read-out: minimum inhibitory concentration (MIC). The source says: (§1) In the following table there are complied the minimum inhibitory concentrations (MIC; μg/ml) of some representative compounds of formula I against a series of pathogenic microorganisms.
(§2) Agar dilution (BB2 + 1% Isovitalex + 7.5% sheep blood + metadione),
(§3) Inoculum: 10^4 CFU/spot;
(Agar dilution tests growth on a series of plates holding different concentrations.)

The test system of the next assay is E. coli B. The description is as above. The class given is cell-based. The conditions noted are these: Escherichia coli, agar dilution (BB2 + 1% Isovitalex + 7.5% sheep blood + metadione), inoculum 10^4 CFU/spot, read-out: minimum inhibitory concentration (MIC).
Excerpt: as §1, §2, §3

The subject of another assay is S. aureus 25923. Described as above. As to conditions: Staphylococcus aureus, agar dilution (BB2 + 1% Isovitalex + 7.5% sheep blood + metadione), inoculum 10^4 CFU/spot, read-out: minimum inhibitory concentration (MIC). It counts as cell-based.
Excerpt: as §1, §2, §3

A further assay concerns S. aureus 887. Described as above. It counts as cell-based. The conditions noted are these: Staphylococcus aureus, agar dilution (BB2 + 1% Isovitalex + 7.5% sheep blood + metadione), inoculum 10^4 CFU/spot, read-out: minimum inhibitory concentration (MIC).
Excerpt: as §1, §2, §3

Another assay relates to S. faecalis 6. The assay is described as above. It counts as cell-based. The conditions noted are these: Enterococcus faecalis, agar dilution (BB2 + 1% Isovitalex + 7.5% sheep blood + metadione), inoculum 10^4 CFU/spot, read-out: minimum inhibitory concentration (MIC).
Excerpt: as §1, §2, §3

The subject of the next assay is S. pyogenes 15. Described as above. The class given is cell-based. The conditions noted are these: Streptococcus pyogenes, agar dilution (BB2 + 1% Isovitalex + 7.5% sheep blood + metadione), inoculum 10^4 CFU/spot, read-out: minimum inhibitory concentration (MIC).
Excerpt: as §1, §2, §3

In the next assay the test system is N. meningitidis 69480. The description is as above. It counts as cell-based. As to conditions: Neisseria meningitidis, agar dilution (BB2 + 1% Isovitalex + 7.5% sheep blood + metadione), inoculum 10^4 CFU/spot, read-out: minimum inhibitory concentration (MIC).
For a further assay, the system named is E. coli DC2. The description is as above. The conditions noted are these: Escherichia coli, agar dilution (BB2 + 1% Isovitalex + 7.5% sheep blood + metadione), inoculum 10^4 CFU/spot, read-out: minimum inhibitory concentration (MIC). It counts as cell-based.
The next assay deals with strain NR0484. The assay is described as follows: Streptomycin sensitivity of strain NR0484. It counts as cell-based, Streptomyces sp. NR0484 (Streptomyces filipinensis). As to conditions: Streptomyces, ISP medium No. Z (Difco), read-out: Streptomycin sensitivity (M.I.C.). As for the experimental part:
(§4) The taxonomic studies were done according to the procedure adopted by the International Streptomyces Project (ISP) using the media recommended by Shining, E. B. and D. Gottlieb (Method for characterization of Streptomyces species; Intern. J. Syst. Bact. 16:313-340, 1966) and by Waksman, S. A. (Classification, identification and description of genera and species; in The Actinomycetes Vol. II; The Williams and Wilkins Co., Baltimore, 1961). All cultures were incubated at 27° C. for 15 days. The colour scheme in the Colour Harmony Manual (4th ed., 1958; Container Corporation of America, Chicago) was used to describe the pigmentation of the colonies. Sodium chloride tolerance of the strains and their growth at various temperatures were tested on ISP medium No. 3 (Difco) containing 0.15% yeast extract; and streptomycin sensitivity of the strains were tested on ISP medium No. Z (Difco).

In another assay the test system is S. filipinensis IFO12860. The assay is described as follows: Streptomycin sensitivity of S. filipinensis IFO12860. As to conditions: Streptomyces filipinensis, IFO12860, read-out: Streptomycin sensitivity (M.I.C.). It counts as cell-based. On the procedure:
as §4

As for `COC(=O)[C@@H]1CSCc2c(O)cc(O)c(C)c2C(=O)OC[C@H](NC(=O)OC(C)(C)C)C(=O)N1` [Example 2, t-butyl (4R,7S)-1,3,4,5,6,7,8,10-octahydro-12,14-dihydroxy-4-methoxycarbonyl-11-methyl-6,10-dioxo-9,2,5-benzoxathiaazacyclododecine-7-carbamate], the results for the “maximum non-effective concentration of the test compound (MNC)” value (from here on “maximum non-effective concentration”) at DNA gyrase and at DNA gyrase (listed as 13) were 0.1 µg/mL and 0.05 µg/mL, respectively.

On to `Cc1c(O)cc(O)c2c1C(=O)OC[C@H](NC(=O)OC(C)(C)C)C(=O)N[C@H](C(=O)O)CSC2` [Example 3, (4R,7S)-7-(L-t-butoxyformamido)-1,3,4,5,6,7,8,10-octahydro-12,14-dihydroxy-11-methyl-6,10-dioxo-9,2,5-benzoxathiaazacyclododecine-4-carboxylic acid], for which, on DNA gyrase, the “maximum non-effective concentration” value was determined as 5 µg/mL.

Regarding `Cc1c(O)cc(O)c2c1C(=O)OC[C@H](N)C(=O)N[C@H](C(=O)O)CSC2` [Example 4, (4R,7S)-7-amino-1,3,4,5,6,7,8,10-octahydro-12,14-dihydro-11-methyl-6,10-dioxo-9,2,5-benzoxathiaazacyclododecine-4-carboxylic acid], the “maximum non-effective concentration” value on DNA gyrase was 1 µg/mL.

With `COC(=O)[C@@H]1CSCc2c(OC(C)=O)cc(OC(C)=O)c(C)c2C(=O)OC[C@H](N)C(=O)N1` [Example 5, methyl (4R,7S)-12,14-diacetoxy-7-amino-1,3,4,5,6,7,8,10-octahydro-11-methyl-6,10-dioxo-9,2,5-benzoxathiaazacyclododecine-4-carboxylate], at DNA gyrase, the “maximum non-effective concentration” value stood at 10 µg/mL.

Regarding `COC(=O)[C@@H]1CSCc2c(O)cc(O)c(C)c2C(=O)OC[C@H](N)C(=O)N1` [Example 6, methyl (4R,7S)-7-amino-1,3,4,5,6,7,8,10-octahydro-12,14-dihydro-11-methyl-6,10-dioxo-9,2,5-benzoxathiaazacyclododecine-4-carboxylate], the “maximum non-effective concentration” value on DNA gyrase came to 2 µg/mL.

Take `Cc1c(O)cc(O)c2c1C(=O)OC[C@H](N)C(=O)NCCSC2` [Example 9, (S)-7-amino-4,5,7,8-tetrahydro-12,14-dihydroxy-11-methyl-9,2,5-benzoxathiaazacyclododecine-6,10(1H,3H)-dione]: on DNA gyrase, the “maximum non-effective concentration” value is 1 µg/mL.

For `CO/N=C(\C(=O)N[C@H]1COC(=O)c2c(C)c(OC(C)=O)cc(OC(C)=O)c2CSC[C@@H](C(=O)OC)NC1=O)c1csc(N)n1` [Example 10, methyl (4R,7S)-12,14-diacetoxy-7-[(Z)-2-(2-amino-4-thiazolyl) -2-(methoxyimino)acetamido]-1,3,4,5,6,7,8,10-octahydro-11-methyl-6,10-dioxo-9,2,5-benzoxathiaazacyclododecine-4-carboxylate], the “maximum non-effective concentration” value on DNA gyrase came to 10 µg/mL.

Take `COC(=O)[C@@H]1CSCc2c(O)cc(OC)c(C)c2C(=O)OC[C@H](O)C(=O)N1` [Example 41, methyl (4R,7S)-1,3,4,5,6,7,8,10-octahydro-7,14-dihydroxy-12-methoxy-11-methyl-6,10-dioxo-9,2,5-benzoxathiaazacyclododecine-4-carboxylate]: the “maximum non-effective concentration” value on DNA gyrase came to 0.1 µg/mL. In addition, the MIC was 4 µg/mL with B. catarrhalis RA 117; 128 µg/mL in the assay on E. coli B; 32 µg/mL in the assay on S. aureus 25923; 32 µg/mL with S. aureus 887; 32 µg/mL with S. faecalis 6; 16 µg/mL with S. pyogenes 15. Further, the MIC in the assay on N. meningitidis 69480 is 8 µg/mL.

On to `CCOC(=O)[C@@H]1CSCc2c(O)cc(OC)c(C)c2C(=O)OC[C@H](NC=O)C(=O)N1` [Example 69, ethyl (4R,7S)-7-formamido-1,3,4,5,6,7,8,10-octahydro-14-hydroxy-12-methoxy-11-methyl-6,10-dioxo-9,2,5-benzoxathiaazacyclododecine-4-carboxylate], for which, on DNA gyrase, the “maximum non-effective concentration” value amounted to 0.05 µg/mL. Further, the MIC in the assay on E. coli DC2 turned out to be 16 µg/mL; in the assay with B. catarrhalis RA 117, 4 µg/mL; in the assay on E. coli B, 32 µg/mL; in the assay with S. aureus 25923 it was 128 µg/mL; with S. aureus 887 it was 32 µg/mL; in the assay on S. faecalis 6, 16 µg/mL. Further, the MIC in the assay with S. pyogenes 15 stood at 4 µg/mL.

As for `C=CCNC(=O)[C@@H]1CSCc2c(O)cc(OC)c(C)c2C(=O)OC[C@H](NC(=O)OC(C)(C)C)C(=O)N1` [Example 84, (4R,7S)-7-tert-butoxycarbonylamino-1,3,4,5,6,7,8,10-octahydro-14-hydroxy-l2-methoxy-11-methyl-6,10-dioxo-9,2,5-benzoxathiaazacyclododecine-4-carboxylic acid allylamide], the “maximum non-effective concentration” value at DNA gyrase was found to be 0.1 µg/mL. The MIC was greater than 128 µg/mL with E. coli DC2; 4 µg/mL in the assay with B. catarrhalis RA 117; greater than 128 µg/mL with E. coli B; 32 µg/mL with S. aureus 25923; 16 µg/mL with S. aureus 887; 32 µg/mL in the assay on S. faecalis 6. Moreover, the MIC turned out to be 16 µg/mL with S. pyogenes 15 and 4 µg/mL in the assay on N. meningitidis 69480.

For the compound `COC(=O)[C@@H]1CSCc2c(O)cc(OC)cc2C(=O)OCCC(=S)N1` [Example 101, methyl (4R)-1,3,4,5,6,7,8,10-octahydro-14-hydroxy-12-methoxy-10-oxo-6-thioxo-9,2,5-benzoxathiaazacyclododecine-4-carboxylate], the “maximum non-effective concentration” value at DNA gyrase came to 0.1 µg/mL. Moreover, the MIC in the assay with E. coli DC2 is 64 µg/mL; in the assay with B. catarrhalis RA 117 it was 4 µg/mL; with E. coli B, 64 µg/mL; in the assay on S. aureus 25923, 16 µg/mL; in the assay with S. aureus 887 it was 16 µg/mL; in the assay with S. faecalis 6, 32 µg/mL. For the same compound, the MIC with S. pyogenes 15 turned out to be 16 µg/mL; in the assay on N. meningitidis 69480, 8 µg/mL.

Consider `CCOC(=O)[C@@H]1CSCc2c(O)cc(OC)c(C)c2C(=O)OC[C@H](NC(C)=S)C(=O)N1` [Example 102, ethyl (4R,7S)-1,3,4,5,6,7,8,10-octahydro-14-hydroxy-12-methoxy-11-methyl-6,10-dioxo-7-thioacetamido-9,2,5-benzoxathiaazacyclododecine-4-carboxylate], for which, at DNA gyrase, the “maximum non-effective concentration” value worked out at 0.25 µg/mL. Also, the MIC in the assay on E. coli DC2 is 64 µg/mL; in the assay on B. catarrhalis RA 117, 2 µg/mL; in the assay on E. coli B, 64 µg/mL; with S. aureus 25923, 16 µg/mL; in the assay with S. aureus 887, 8 µg/mL; in the assay with S. faecalis 6, 16 µg/mL. The MIC in the assay on S. pyogenes 15 worked out at 8 µg/mL; in the assay on N. meningitidis 69480, 2 µg/mL.

Take `COC(=O)N[C@H]1COC(=O)c2c(C)c(OC)cc(O)c2CSC[C@@H](C(=O)OC)NC1=O` [Example 137, Methyl (4R,7S)-1,3,4,5,6,7,8,10-octahydro-14-hydroxy-12-methoxy-4-methoxycarbonyl-11-methyl-6,10-dioxo-9,2,5-benzoxathiaazacyclododecine-7-carbamate]: on DNA gyrase, the “maximum non-effective concentration” value turned out to be 0.2 µg/mL. Besides, the MIC in the assay on E. coli DC2 was determined as 64 µg/mL; in the assay with B. catarrhalis RA 117, 4 µg/mL; with E. coli B, 64 µg/mL; in the assay on S. aureus 25923, 128 µg/mL; in the assay on S. aureus 887, 32 µg/mL; in the assay with S. faecalis 6, 64 µg/mL. The MIC in the assay on S. pyogenes 15 and in the assay on N. meningitidis 69480 was 8 µg/mL each time.

`[H]/N=C(/N)N[C@H]1[C@H](O)[C@@H](O)[C@H](O[C@@H]2O[C@@H](C)[C@](O)(C=O)[C@H]2O[C@@H]2O[C@@H](CO)[C@H](O)[C@@H](O)[C@@H]2NC)[C@@H](N/C(N)=N\[H])[C@@H]1O` [Streptomycin]: the MIC in the assay on strain NR0484 and with S. filipinensis IFO12860 was 6300 µg/mL (≈ 10.8 mM) in each case.
